Target: T1, ALK5 kinase (Homo sapiens, UniProt P36897)
T1 construct: GST; purchased Thermo Fisher Scientific Solutions
T1 sequence (P36897 34-503): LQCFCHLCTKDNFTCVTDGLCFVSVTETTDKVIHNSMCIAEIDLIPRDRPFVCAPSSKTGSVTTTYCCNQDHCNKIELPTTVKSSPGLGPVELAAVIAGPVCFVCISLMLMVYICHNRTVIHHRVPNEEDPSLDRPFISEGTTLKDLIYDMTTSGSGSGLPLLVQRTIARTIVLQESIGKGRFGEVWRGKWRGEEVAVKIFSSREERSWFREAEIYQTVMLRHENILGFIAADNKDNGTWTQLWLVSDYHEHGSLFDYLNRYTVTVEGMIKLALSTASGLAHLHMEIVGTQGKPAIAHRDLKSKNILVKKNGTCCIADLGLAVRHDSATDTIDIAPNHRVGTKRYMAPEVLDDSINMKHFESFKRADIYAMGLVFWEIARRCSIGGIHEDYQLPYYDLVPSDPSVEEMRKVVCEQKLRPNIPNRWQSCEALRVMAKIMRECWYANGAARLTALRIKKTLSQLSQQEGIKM
Test: Activity inhibition test on ALK5 enzyme (LanthaScreen Eu binding kinase assay)
Details: kinase tracer 178, 60 minutes at room temperature
Procedure: For each of the compounds obtained in Examples 1 to 227, inhibitory activity against ALK5 kinase was measured.
For this, a LanthaScreen Eu binding kinase assay method was used, and ALK5 kinase, a kinase buffer, a kinase tracer 178, and a LanthaScreen Eu-GST binding antibody were all purchased from Thermo Fisher Scientific Solutions. Each of the compounds was made into a 10 mM DMSO solution, and diluted by 1/10 to a concentration of 1 μM to 0.0001 μM with an aqueous solution containing 4% DMSO. The test was performed in 384 well plates (well polystyrene low volume round-bottomed plates). First, 5 μL of the diluted compound solution was added, then 5 μL of the kinase/antibody mixture solution was introduced thereto, and 5 μL of the tracer was introduced thereto. Herein, these were added to each well so that the final kinase concentration became 5 nM, the final Eu-GST binding antibody concentration 2 nM, and the kinase tracer 178 concentration 10 nM, and the result was reacted in a stirrer for 60 minutes at room temperature. Then a fluorescence value was measured using a fluorescence meter (molecular device) ([…], 665 nm emission filter). Herein, as for the degree of compound activity to inhibit the kinase reaction, a phosphorylate rate was calculated from 0% to 100% with respect to a control group according to the protocol included in the kit, and a 50% inhibitory concentration (IC50) value was calculated by obtaining the x-axis concentration in the region where 50% activity was inhibited.

Compound | IC50 [nM]
5-([1,2,4]triazolo[1,5-α]pyridin-6-yl)-N-(1-cyclopropyl sulfonyl)-1H-pyrazol-4-yl)-1-(6-methylpyridin-2-yl)-1H-pyrazole-3-carboxyamide [Example 163] | 4.6
5-([1,2,4]triazolo[1,5-α]pyridin-6-yl)-N-(4-((1,1-dioxidotetrahydrothiophen-3-yl)amino)phenyl)-1-(6-methylpyridin-2-yl)-1H-pyrazole-3-carboxyamide [Example 109] | 9.7
COc1ccc(NC(=O)c2cc(-c3ccc4ncsc4c3)n(-c3cccc(C)n3)n2)cc1 [Example 1, 5-(benzo[d]thiazol-6-yl)-N-(4-methoxyphenyl)-1-(6-methylpyridin-2-yl)-1H-pyrazole-3-carboxyamide] | 5
CCOc1ccc(NC(=O)c2cc(-c3ccc4ncsc4c3)n(-c3cccc(C)n3)n2)cc1 [Example 2, 5-(benzo[d]thiazol-6-yl)-N-(4-ethoxyphenyl)-1-(6-methylpyridin-2-yl)-1H-pyrazole-3-carboxyamide] | 4.7
Cc1cccc(-n2nc(C(=O)Nc3ccc(OCC4CC4)cc3)cc2-c2ccc3ncsc3c2)n1 [Example 3, 5-(benzo[d]thiazol-6-yl)-N-(4-(cyclopropylmethoxy)phenyl)-1-(6-methylpyridin-2-yl)-1H-pyrazole-3-carboxyamide] | 12
COCCOc1ccc(NC(=O)c2cc(-c3ccc4ncsc4c3)n(-c3cccc(C)n3)n2)cc1 [Example 4, 5-(benzo[d]thiazol-6-yl)-N-(4-(2-methoxyethoxy)phenyl)-1-(6-methylpyridin-2-yl)-1H-pyrazole-3-carboxyamide] | 4.4
Cc1cccc(-n2nc(C(=O)Nc3ccc(OC(F)(F)F)cc3)cc2-c2ccc3ncsc3c2)n1 [Example 5, 5-(benzo[d]thiazol-6-yl)-1-(6-methylpyridin-2-yl)-N-(4-(trifluoromethoxy)phenyl)-1H-pyrazole-3-carboxyamide] | 10 to 100
Cc1cccc(-n2nc(C(=O)Nc3ccc(OCc4ccccc4)cc3)cc2-c2ccc3ncsc3c2)n1 [Example 6, 5-(benzo[d]thiazol-6-yl)-N-(4-(benzyloxy)phenyl)-1-(6-methylpyridin-2-yl)-1H-pyrazole-3-carboxyamide] | 11
Cc1cccc(-n2nc(C(=O)Nc3ccc4c(c3)OCO4)cc2-c2ccc3ncsc3c2)n1 [Example 7, N-(benzo[d][1,3]dioxol-5-yl)-5-(benzo[d]thiazol-6-yl)-1-(6-methylpyridin-2-yl)-1-H-pyrazole-3-carboxyamide] | < 10
COc1cc(NC(=O)c2cc(-c3ccc4ncsc4c3)n(-c3cccc(C)n3)n2)ccc1F [Example 8, 5-(benzo[d]thiazol-6-yl)-N-(4-fluoro-3-methoxyphenyl)-1-(6-methylpyridin-2-yl)-1H-pyrazole-3-carboxyamide] | 4.7
COc1ccc(NC(=O)c2cc(-c3ccc4ncsc4c3)n(-c3cccc(C)n3)n2)c(F)c1 [Example 9, 5-(benzo[d]thiazol-6-yl)-N-(2-fluoro-4-methoxyphenyl)-1-(6-methylpyridin-2-yl)-1H-pyrazole-3-carboxyamide] | 19
COc1ccc(NC(=O)c2cc(-c3ccc4ncsc4c3)n(-c3cccc(C)n3)n2)cc1F [Example 10, 5-(benzo[d]thiazol-6-yl)-N-(3-fluoro-4-methoxyphenyl)-1-(6-methylpyridin-2-yl)-1H-pyrazole-3-carboxyamide] | 10
Cc1cccc(-n2nc(C(=O)Nc3cccc(N)c3)cc2-c2ccc3ncsc3c2)n1 [Example 11, 5-(benzo[d]thiazol-6-yl)-N-(3-aminophenyl)-1-(6-methylpyridin-2-yl)-1H-pyrazole-3-carboxyamide] | 2.2
CNc1cccc(NC(=O)c2cc(-c3ccc4ncsc4c3)n(-c3cccc(C)n3)n2)c1 [Example 12, 5-(benzo[d]thiazol-6-yl)-N-(3-(methylamino)phenyl)-1-(6-methylpyridin-2-yl)-1H-pyrazole-3-carboxyamide] | 6.1
Cc1cccc(-n2nc(C(=O)Nc3ccc(N(C)C)cc3)cc2-c2ccc3ncsc3c2)n1 [Example 13, 5-(benzo[d]thiazol-6-yl)-N-(4-(dimethylamino)phenyl)-1-(6-methylpyridin-2-yl)-1H-pyrazole-3-carboxyamide] | 10 to 100
Cc1cccc(-n2nc(C(=O)Nc3ccc([N+](=O)[O-])cc3)cc2-c2ccc3ncsc3c2)n1 [Example 14, 5-(benzo[d]thiazol-6-yl)-1-(6-methylpyridin-2-yl)-N-(4-nitrophenyl)-1H-pyrazole-3-carboxyamide] | 17
Cc1cccc(-n2nc(C(=O)Nc3ccc(N(C)CCN(C)C)cc3)cc2-c2ccc3ncsc3c2)n1 [Example 15, 5-(benzo[d]thiazol-6-yl)-N-(4-((2-(dimethylamino)ethyl)(methyl)amino)phenyl)-1-(6-methylpyridin-2-yl)-1H-pyrazole-3-carboxyamide] | 6.4
Cc1cccc(-n2nc(C(=O)Nc3ccc(N4CC[C@H](N(C)C)C4)cc3)cc2-c2ccc3ncsc3c2)n1 [Example 16, 5-(benzo[d]thiazol-6-yl)-N-(4-(3-(dimethylamino)pyrrolidin-1-yl)phenyl)-1-(6-methylpyridin-2-yl)-1H-pyrazole-3-carboxyamide] | 2.3
Cc1cccc(-n2nc(C(=O)Nc3ccc(N4CC5CCCNC5C4)c(Cl)c3)cc2-c2ccc3ncsc3c2)n1 (stereo not drawn) [Example 17, 5-(benzo[d]thiazol-6-yl)-N-(3-chloro-4-(octahydro-6H-pyrrolo[3,4-b]pyridin-6-yl)phenyl)-1-(6-methylpyridin-2-yl)-1H-pyrazole-3-carboxyamide] | 14
Cc1cccc(-n2nc(C(=O)Nc3ccccc3)cc2-c2ccc3ncsc3c2)n1 [Example 18, 5-(benzo[d]thiazol-6-yl)-1-(6-methylpyridin-2-yl)-N-phenyl-1H-pyrazole-3-carboxyamide] | 10 to 100
Cc1cccc(NC(=O)c2cc(-c3ccc4ncsc4c3)n(-c3cccc(C)n3)n2)c1 [Example 19, 5-(benzo[d]thiazol-6-yl)-N-(3-tolyl)-1-(6-methylpyridin-2-yl)-1H-pyrazole-3-carboxyamide] | 10 to 100
C=Cc1cccc(NC(=O)c2cc(-c3ccc4ncsc4c3)n(-c3cccc(C)n3)n2)c1 [Example 20, 5-(benzo[d]thiazol-6-yl)-1-(6-methylpyridin-2-yl)-N-(3-vinylphenyl)-1H-pyrazole-3-carboxyamide] | 10 to 100
Cc1cccc(-n2nc(C(=O)Nc3cccc(C(F)(F)F)c3)cc2-c2ccc3ncsc3c2)n1 [Example 21, 5-(benzo[d]thiazol-6-yl)-N-(3-(trifluoromethyl)phenyl)-1-(6-methylpyridin-2-yl)-1H-pyrazole-3-carboxyamide] | ~100
Cc1cccc(-n2nc(C(=O)Nc3cccc(C#N)c3)cc2-c2ccc3ncsc3c2)n1 [Example 22] | 10 to 100
CC(=O)c1cccc(NC(=O)c2cc(-c3ccc4ncsc4c3)n(-c3cccc(C)n3)n2)c1 [Example 23, 5-(benzo[d]thiazol-6-yl)-N-(3-acetylphenyl)-1-(6-methylpyridin-2-yl)-1H-pyrazole-3-carboxyamide] | ~10
CCOC(=O)c1cccc(NC(=O)c2cc(-c3ccc4ncsc4c3)n(-c3cccc(C)n3)n2)c1 [Example 24, ethyl 3-(5-(benzo[d]thiazol-6-yl)-1-(6-methylpyridin-2-yl)-1H-pyrazole-3-carboxyamido)benzoate] | ~100
CNC(=O)c1ccc(NC(=O)c2cc(-c3ccc4ncsc4c3)n(-c3cccc(C)n3)n2)cc1 [Example 25, 5-(benzo[d]thiazol-6-yl)-N-(4-(methylcarbamoyl)phenyl)-1-(6-methylpyridin-2-yl)-1H-pyrazole-3-carboxyamide] | < 10
CC(=O)Nc1ccc(NC(=O)c2cc(-c3ccc4ncsc4c3)n(-c3cccc(C)n3)n2)cc1 [Example 26, 5-(benzo[d]thiazol-6-yl)-N-(4-acetamidophenyl)-1-(6-methylpyridin-2-yl)-1H-pyrazole-3-carboxyamide] | 10 to 100
Cc1cccc(-n2nc(C(=O)Nc3ccccc3F)cc2-c2ccc3ncsc3c2)n1 [Example 27, 5-(benzo[d]thiazol-6-yl)-N-(2-fluorophenyl)-1-(6-methylpyridin-2-yl)-1H-pyrazole-3-carboxyamide] | 6.2
Cc1cccc(-n2nc(C(=O)Nc3cccc(F)c3)cc2-c2ccc3ncsc3c2)n1 [Example 28, 5-(benzo[d]thiazol-6-yl)-N-(3-fluorophenyl)-1-(6-methylpyridin-2-yl)-1H-pyrazole-3-carboxyamide] | 4.5

From patent US10954232B2, “Pyrazole derivative as ALK5 inhibitor and uses thereof” (HANMI PHARMACEUTICAL CO., LTD., priority 2016, dated 2021)
